Test system: ADPKD cells
Assay: modified Boyden chamber motility assay
Type: cell-based, human
Conditions: cells treated for 2 days with 10 mM LiCl, migration through 8 μM pores, 1%-5% FBS gradient, fluorescent microplate quantification, compared with NHCT and NHTAL controls
Procedure: To assay for cell motility a number of different assays may be used, including but not limited to, standard migratory assays on slides or using modified Boyden chambers. Such assay systems are described in further detail in a working example of the present specification (See, Example 7).
Using a modified Boyden chamber motility assay human renal epithelial cells and ADPKD cells were plated (5000 cells/membrane) in the upper chamber and allowed to migrate through 8 μM pores for 0-15 hours in response to a 1%-5% FBS gradient. All primary and differentiated conditionally immortalized cell types migrate in a a time-dependent fashion but more normal adult collecting tubule (NHCT) and thick ascending limb (NHTAL) cells appeared in the lower chamber than ADPKD epithelia, 975±10 (NHCT), 1060±(NHTAL) versus 426±20 (ADPKD). The effect of lithium on renal epithelial cell motility was assessed. Calcein-AM (Goldberg, A. Fluorescent Blocking Membrane Enhances Analyses of Cell-Based Assay. Becton Dickinson Techniques Bulletin #429) labeled cells were treated for 2 days±10 mM LICL and then plated onto membranes as described above.

## [Cl-].[Li+] [LiCl, lithium chloride]
  motility of ADPKD cells: significantly increased the motility of ADPKD cells
Listed as Lithium
  motility of ADPKD cells: increases the motility of ADPKD cells to the level observed for NHCT (CT) cells
Listed as lithium
  motility of ADPKD cells: decreased epithelial cell motility can be reversed
Listed as lithium chloride
  motility of ADPKD cells: increase the motility of ADPKD cells to almost normal levels

— US6638726B1, “Screening methods for compounds useful in the treatment of polycystic kidney disease” (Mount Sinai School of Medicine of New York University, priority 2000, dated 2003)
